≈ marks a conversion by molar mass, not a printed value.
Experiments:
[1] = tested on: Staphylococcus aureus; experiment: Antibacterial activity against Staphylococcus aureus ATCC 6538 after 24 hrs by microdilution method; assay type: functional; conditions: ATCC 6538, 24 h
[2] = tested on: Pseudomonas aeruginosa; experiment: Antibacterial activity against Pseudomonas aeruginosa ATCC 27853 after 24 hrs by microdilution method; assay type: functional; conditions: ATCC 27853, 24 h
[3] = tested on: Aspergillus versicolor; experiment: Fungicidal activity against Aspergillus versicolor ATCC 11730 after 72 hrs; assay type: functional; conditions: ATCC 11730, 72 h
[4] = tested on: Staphylococcus aureus; experiment: Bactericidal activity against Staphylococcus aureus ATCC 6538 after 24 hrs; assay type: functional; conditions: ATCC 6538, 24 h
[5] = tested on: Bacillus cereus; experiment: Antibacterial activity against Bacillus cereus clinical isolate after 24 hrs by microdilution method; assay type: functional
[6] = tested on: Salmonella typhimurium; experiment: Antibacterial activity against Salmonella Typhimurium ATCC 13311 after 24 hrs by microdilution method; assay type: functional, Salmonella enterica subsp. enterica serovar Typhimurium; conditions: Salmonella enterica, ATCC 13311, 24 h
[7] = tested on: Aspergillus versicolor; experiment: Antifungal activity against Aspergillus versicolor ATCC 11730 after 72 hrs by serial dilution method; assay type: functional; conditions: ATCC 11730, 72 h
[8] = tested on: Listeria monocytogenes; experiment: Bactericidal activity against Listeria monocytogenes NCTC 7973 after 24 hrs; assay type: functional; conditions: NCTC 7973, 24 h
[9] = tested on: Fusarium sporotrichioides; experiment: Fungicidal activity against Fusarium sporotrichioides IMT 496 after 72 hrs; assay type: functional; conditions: IMT 496, 72 h
[10] = tested on: Listeria monocytogenes; experiment: Antibacterial activity against Listeria monocytogenes NCTC 7973 after 24 hrs by microdilution method; assay type: functional; conditions: NCTC 7973, 24 h
[11] = tested on: Aspergillus niger; experiment: Antifungal activity against Aspergillus niger ATCC 6275 after 72 hrs by serial dilution method; assay type: functional; conditions: ATCC 6275, 72 h
[12] = Antifungal activity against Fusarium sporotrichioides IMT 496 after 72 hrs by serial dilution method; assay type: functional
[13] = tested on: Enterococcus faecalis; experiment: Antibacterial activity against Enterococcus faecalis isolate obtained from human after 24 hrs by microdilution method; assay type: functional
[14] = tested on: Escherichia coli; experiment: Antibacterial activity against Escherichia coli ATCC 35210 after 24 hrs by microdilution method; assay type: functional; conditions: ATCC 35210, 24 h
[15] = tested on: Micrococcus flavus; experiment: Bactericidal activity against Micrococcus flavus ATCC 10240 after 24 hrs; assay type: functional; conditions: ATCC 10240, 24 h
[16] = tested on: Penicillium ochrochloron; experiment: Fungicidal activity against Penicillium ochrochloron ATCC 9112 after 72 hrs; assay type: functional; conditions: ATCC 9112, 72 h
[17] = tested on: Micrococcus flavus; experiment: Antibacterial activity against Micrococcus flavus ATCC 10240 after 24 hrs by microdilution method; assay type: functional; conditions: ATCC 10240, 24 h
[18] = tested on: Enterococcus faecalis; experiment: Bactericidal activity against Enterococcus faecalis isolate obtained from human after 24 hrs; assay type: functional
[19] = tested on: Trichoderma viride; experiment: Fungicidal activity against Trichoderma viride IAM 5061 after 72 hrs; assay type: functional; conditions: IAM 5061, 72 h
[20] = tested on: Aspergillus fumigatus; experiment: Antifungal activity against Aspergillus fumigatus plant isolate after 72 hrs by serial dilution method; assay type: functional
[21] = tested on: Salmonella typhimurium; experiment: Bactericidal activity against Salmonella Typhimurium ATCC 13311 after 24 hrs; assay type: functional, Salmonella enterica subsp. enterica serovar Typhimurium; conditions: Salmonella enterica, ATCC 13311, 24 h
[22] = tested on: Talaromyces funiculosus; experiment: Antifungal activity against Penicillium funiculosum ATCC 36839 after 72 hrs by serial dilution method; assay type: functional; conditions: ATCC 36839, 72 h
[23] = tested on: Talaromyces funiculosus; experiment: Fungicidal activity against Penicillium funiculosum ATCC 36839 after 72 hrs; assay type: functional; conditions: ATCC 36839, 72 h
[24] = tested on: Aspergillus fumigatus; experiment: Fungicidal activity against Aspergillus fumigatus plant isolate after 72 hrs; assay type: functional
[25] = tested on: Aspergillus niger; experiment: Fungicidal activity against Aspergillus niger ATCC 6275 after 72 hrs; assay type: functional; conditions: ATCC 6275, 72 h
[26] = tested on: Escherichia coli; experiment: Bactericidal activity against Escherichia coli ATCC 35210 after 24 hrs; assay type: functional; conditions: ATCC 35210, 24 h
[27] = tested on: Aspergillus ochraceus; experiment: Antifungal activity against Aspergillus ochraceus ATCC 12066 after 72 hrs by serial dilution method; assay type: functional; conditions: ATCC 12066, 72 h
[28] = tested on: Bacillus cereus; experiment: Bactericidal activity against Bacillus cereus clinical isolate after 24 hrs; assay type: functional
[29] = tested on: Penicillium ochrochloron; experiment: Antifungal activity against Penicillium ochrochloron ATCC 9112 after 72 hrs by serial dilution method; assay type: functional; conditions: ATCC 9112, 72 h
[30] = tested on: Pseudomonas aeruginosa; experiment: Bactericidal activity against Pseudomonas aeruginosa ATCC 27853 after 24 hrs; assay type: functional; conditions: ATCC 27853, 24 h
[31] = tested on: Trichoderma viride; experiment: Antifungal activity against Trichoderma viride IAM 5061 after 72 hrs by serial dilution method; assay type: functional; conditions: IAM 5061, 72 h
[32] = tested on: Aspergillus ochraceus; experiment: Fungicidal activity against Aspergillus ochraceus ATCC 12066 after 72 hrs; assay type: functional; conditions: ATCC 12066, 72 h

Row | Structure (SMILES) | MIC [1] [µM] | MIC [2] [µM] | MFC [3] [µM] | MBC [4] [µM] | MIC [5] [µM] | MIC [6] [µM] | MIC [7] [µM] | MBC [8] [µM] | MFC [9] [µM] | MIC [10] [µM] | MIC [11] [µM] | MIC [13] [µM] | MIC [14] [µM] | MBC [15] [µM] | MIC [17] [µM] | MBC [18] [µM] | MBC [21] [µM] | MBC [26] [µM] | MBC [28] [µM] | MBC [30] [µM] | also measured
1 | CNc1nc(C)c(C(=O)/C=C/c2ccc([N+](=O)[O-])cc2)s1 | 330 (≈ 100 µg/mL) | 330 (≈ 100 µg/mL) | 496 (≈ 150 µg/mL) | 495 (≈ 150 µg/mL) | 330 (≈ 100 µg/mL) | 248 (≈ 75.1 µg/mL) | 330 (≈ 100 µg/mL) | 495 (≈ 150 µg/mL) | 660 (≈ 200 µg/mL) | 330 (≈ 100 µg/mL) | 330 (≈ 100 µg/mL) | 165 (≈ 50.1 µg/mL) | 248 (≈ 75.1 µg/mL) | 495 (≈ 150 µg/mL) | 330 (≈ 100 µg/mL) | 330 (≈ 100 µg/mL) | 330 (≈ 100 µg/mL) | 330 (≈ 100 µg/mL) | 495 (≈ 150 µg/mL) | 495 (≈ 150 µg/mL) | MIC (10'-2 umol/ml) [12]: 16.5; MFC [16]: 496 µM (≈ 150 µg/mL); MFC [19]: 330 µM (≈ 100 µg/mL); MIC [20]: 330 µM (≈ 100 µg/mL); MIC [22]: 330 µM (≈ 100 µg/mL); MFC [23]: 496 µM (≈ 150 µg/mL); MFC [24]: 496 µM (≈ 150 µg/mL); MFC [25]: 825 µM (≈ 250 µg/mL); MIC [27]: 250 µM (≈ 75.8 µg/mL); MIC [29]: 330 µM (≈ 100 µg/mL); MIC [31]: 165 µM (≈ 50.1 µg/mL); MFC [32]: 330 µM (≈ 100 µg/mL)
2 | CNc1nc(C)c(C(=O)/C=C/c2ccccc2OC)s1 | 347 (≈ 100 µg/mL) | 295 (≈ 85.1 µg/mL) | 520 (≈ 150 µg/mL) | 347 (≈ 100 µg/mL) | 347 (≈ 100 µg/mL) | 347 (≈ 100 µg/mL) | 340 (≈ 98 µg/mL) | 521 (≈ 150 µg/mL) | 340 (≈ 98 µg/mL) | 347 (≈ 100 µg/mL) | 340 (≈ 98 µg/mL) | 260 (≈ 75.1 µg/mL) | 260 (≈ 75.1 µg/mL) | 295 (≈ 85.1 µg/mL) | 260 (≈ 75.1 µg/mL) | 347 (≈ 100 µg/mL) | 521 (≈ 150 µg/mL) | 347 (≈ 100 µg/mL) | 347 (≈ 100 µg/mL) | 347 (≈ 100 µg/mL) | MIC (10'-2 umol/ml) [12]: 17; MFC [16]: 520 µM (≈ 150 µg/mL); MFC [19]: 340 µM (≈ 98 µg/mL); MIC [20]: 340 µM (≈ 98 µg/mL); MIC [22]: 340 µM (≈ 98 µg/mL); MFC [23]: 690 µM (≈ 199 µg/mL); MFC [24]: 520 µM (≈ 150 µg/mL); MFC [25]: 870 µM (≈ 251 µg/mL); MIC [27]: 170 µM (≈ 49 µg/mL); MIC [29]: 340 µM (≈ 98 µg/mL); MIC [31]: 170 µM (≈ 49 µg/mL); MFC [32]: 340 µM (≈ 98 µg/mL)
3 | CN[C@@H]1[C@H](O[C@H]2[C@H](O[C@H]3[C@H](O)[C@@H](O)[C@H](N=C(N)N)[C@@H](O)[C@@H]3N=C(N)N)O[C@@H](C)[C@]2(O)C=O)O[C@@H](CO)[C@H](O)[C@H]1O [STREPTOMYCIN] | 17.1 (≈ 9.95 µg/mL) | 2 (≈ 1.16 µg/mL) | – | 42.9 (≈ 24.9 µg/mL) | 2 (≈ 1.16 µg/mL) | 2 (≈ 1.16 µg/mL) | – | 43 (≈ 25 µg/mL) | – | 17.1 (≈ 9.95 µg/mL) | – | 4.3 (≈ 2.5 µg/mL) | 8.6 (≈ 5 µg/mL) | 4.3 (≈ 2.5 µg/mL) | 2 (≈ 1.16 µg/mL) | 8.6 (≈ 5 µg/mL) | 4.3 (≈ 2.5 µg/mL) | 17.1 (≈ 9.95 µg/mL) | 4.3 (≈ 2.5 µg/mL) | 4.3 (≈ 2.5 µg/mL) | –
